Test results published in paper PMC10726441, “Discovery of Tumor-Targeted 6-Methyl Substituted Pemetrexed and Related Antifolates with Selective Loss of RFC Transport” (ACS Medicinal Chemistry Letters, 2023).
pIC50: −log10 of the molar value.

Assays:
PC43-10 (RFC) CHO cells = assay: Cell proliferation assay, PC43-10 CHO cells expressing human RFC; type: cell-based, Chinese hamster; details: Cricetulus griseus, 96 h, 0-1000 nM, mean (standard error), 3-5 experiments
Description: To assess the impact of 6-methyl substitutions on the bicyclic scaffolds of the pyrrolo[2,3-d]pyrimidine antifolates 1–4 on RFC transport vis-à-vis PCFT, FRα, and FRβ, we used a unique biological readout for transport activity. This involved proliferation assays with isogenic Chinese hamster ovary (CHO) sublines derived from RFC-, FR-, and PCFT-null MTXRIIOua^R2–4 CHO cells[39],[40] engineered to express the human FRα (RT16),[25] FRβ (D4),[25] RFC (PC43–10),[41] or PCFT (R2/PCFT4).[26],[42] As these CHO cell lines are genetically identical except for their folate transporters, differences in inhibition of cell proliferation by specific cytotoxic antifolates directly reflect transporter specificities.[19],[23]−[31],[42] […]
Reagents for biological studies. Leucovorin [(6R,S) 5-formyl tetrahydrofolate] and methotrexate (MTX) was provided by the Drug Development Branch, National Cancer Institute, Bethesda, MD. Other chemicals were obtained from commercial sources in the highest available purities. Pemetrexed (PMX; 1) [N-{4-[2- (2-amino-3,4-dihydro-4-oxo-7H-pyrrolo[2,3-d]pyrimidin-5-yl)ethyl]benzoyl-L-glutamic acid] (Alimta) was purchased from LC Laboratories (Woburn, MA). The syntheses of compounds 2 and 3 were previously described.7, 8 Additional chemicals were purchased from commercial sources in the highest available purities.
Cell Culture. The reduced folate carrier (RFC), proton-coupled folate transporter (SLC46A1; PCFT) and folate receptor (FR) α- and β-null Chinese hamster ovary (CHO) cell line MTXRIIOuaR2-49 was a gift from Dr. Wayne Flintoff (University of Western Ontario, London, ON). Four sublines were derived from the R2 subline by transfection with either RFC, PCFT, FRα, or FRβ, giving rise to PC43-10 (expresses human RFC), 10 R2/PCFT4 (expresses human PCFT),11 RT16 (expresses human FRα), 12 and D4 (expresses FRβ) cells. 12 Isogenic CHO sublines were routinely cultured in α-minimal essential medium (α-MEM) supplemented with 100 units/mL penicillin/100 μg/mL streptomycin, 2 mM L-glutamine and 10% bovine calf serum (Sigma-Aldrich). Transfected sublines of R2 cells were cultured in the presence of 1.5 mg/ml G418. […]
mM L-glutamine. Cell lines were tested for Mycoplasma by PCR using a Mycloplasma testing kit (Venor™ GeM Mycoplasma Detection Kit, Sigma). Frozen stocks were generated from authenticated Mycoplasma-free cultures.
(§1) For cell proliferation assays, CHO, KB, NCI-IGROV1 and IOSE 7576 cells were plated in 96-well dishes at densities ranging from 2500-5000 cells/well in 200 μL media and treated with a range of inhibitors spanning 0-1000 nM. Experiments with RT16, D4, IGROV1, IOSE 7576 and KB cells used folate-free RPMI 1640 (FF RPMI) media with 10% dialyzed fetal bovine serum and 100 units/mL penicillin/100 μg/mL streptomycin, supplemented with 2 nM leucovorin and 2 mM L-glutamine. FR-mediated drug uptake was assessed in parallel incubations including 200 nM folic acid. For R2/PCFT4, PC43-10 and R2 CHO cells, the medium was FF-RPMI supplemented with 10% dialyzed fetal bovine serum, 100 units/mL penicillin/100 μg/mL streptomycin, 25 nM leucovorin and 2 mM L-glutamine.
(§2) Cells were treated over a 96 h period at 37° C with 5% CO2 and relative cell numbers quantified using the CellTiter-blue cell viability assay (Promega, Madison, WI) and a fluorescence plate reader. Raw data were exported to Excel for analysis and the results were plotted using Graphpad Prism 6.0. Determinations of IC50s were made […]
(§3) assays have been previously described.7, 8, 11, 12, 15-20
(§4) Using KB cells, additional proliferation assays were performed with metabolite protection in folate- and glycine-free RPMI1640 with 10% dialyzed fetal bovine serum, 2 mM L-glutamine and antibiotics with 2 nM leucovorin to identify the targeted pathway and enzyme(s). 7, 8, 11, 12, 15-20 Inhibitory effects of the novel analogs on de novo thymidylate biosynthesis and de novo purine nucleotide biosynthesis were tested by incubating drugs with thymidine (10 μM) and adenosine (60 μM), respectively. […]

[1] = test system: IOSE 7576 normal ovary cells; assay: Cell proliferation assay, IOSE 7576 normal ovary cells; type: cell-based, human; details: for pIC50: Homo sapiens, 96 h, 0-1000 nM, mean (standard error), 3-5 experiments
Description: For the tumor cells, except the des-methyl compound 4 with IGROV1 cells, all compounds were inhibitory. […]
Reagents for biological studies. Leucovorin [(6R,S) 5-formyl tetrahydrofolate] and methotrexate (MTX) was provided by the Drug Development Branch, National Cancer Institute, Bethesda, MD. Other chemicals were obtained from commercial sources in the highest available purities. Pemetrexed (PMX; 1) [N-{4-[2- (2-amino-3,4-dihydro-4-oxo-7H-pyrrolo[2,3-d]pyrimidin-5-yl)ethyl]benzoyl-L-glutamic acid] (Alimta) was purchased from LC Laboratories (Woburn, MA). The syntheses of compounds 2 and 3 were previously described.7, 8 Additional chemicals were purchased from commercial sources in the highest available purities. […]
KB nasopharyngeal carcinoma cells were obtained from the American Type Culture Collection (Manassas, VA) and IGROV1 (NCI-IGROV1) (passage 5) ovarian adenocarcinoma cells13 were obtained from the Division of Cancer Treatment and Diagnosis, National Cancer Institute (Frederick, MD). Normal ovary cells immortalized with SV40 (IOSE 7576)14 were obtained from the Canadian OvCaRe Cell Bank […]
(Vancouver, B.C). IGROV1, KB and IOSE 7576 cells were cultured in complete FF-RPMI with 10% fetal bovine serum and 100 units/mL penicillin/100 μg/mL streptomycin, and 2 mM L-glutamine. Cell lines were tested for Mycoplasma by PCR using a Mycloplasma testing kit (Venor™ GeM Mycoplasma Detection Kit, Sigma). Frozen stocks were generated from authenticated Mycoplasma-free cultures.
as §1, §2, §3
as §4, with “respectively. Incubation with glycine (130 µM) was used to assess the potential involvement of mitochondrial C1 targeted agents.15 To identify multiple metabolic targets, metabolite additions were added in combination.7, 8, 11, 12, 15-19 Finally, to distinguish targeting between the folate-dependent purine biosynthetic enzymes glycinamide ribonucleotide formyltransferase (GARFTase) and 5-aminoimidazole-4-carboxamide (AICA) ribonucleotide formyltransferase (AICARFTase), co-incubation experiments were performed using AICA hydrochloride (320 μM). 7, 8, 11, 12,” for “respectively.”
Statistics. The biological data reflect at least three experimental replicates. All statistical comparisons were performed using unpaired t-tests. Biological data are presented as mean values +/- standard errors using data without transformation.

Row | Compound | pIC50 (PC43-10 (RFC) CHO cells) | pIC50 [1] | inhibition of IOSE 7576 cells (in words) [1]
1 | Nc1nc2[nH]cc(CCc3ccc(C(=O)N[C@@H](CCC(=O)O)C(=O)O)cc3)c2c(=O)[nH]1 [Compound 1, reference compound] | 7.51 | 6.20 | 
2 | Nc1nc2[nH]cc(CCCc3ccc(C(=O)N[C@@H](CCC(=O)O)C(=O)O)cc3)c2c(=O)[nH]1 [Compound 2] |  | 7.88 | 
3 | Nc1nc2[nH]cc(CCc3ccc(C(=O)N[C@@H](CCC(=O)O)C(=O)O)s3)c2c(=O)[nH]1 [Compound 3] | 7.22 | 7.41 | 
4 | Nc1nc2[nH]cc(CCc3ccc(C(=O)N[C@@H](CCC(=O)O)C(=O)O)c(F)c3)c2c(=O)[nH]1 [Compound 4] | 6.77 | < 6.00 | inactive
5 | Cc1[nH]c2nc(N)[nH]c(=O)c2c1CCc1ccc(C(=O)N[C@@H](CCC(=O)O)C(=O)O)cc1 [Compound 5] | < 6.00 | < 6.00 | 
6 | Cc1[nH]c2nc(N)[nH]c(=O)c2c1CCCc1ccc(C(=O)N[C@@H](CCC(=O)O)C(=O)O)cc1 [Compound 6] | < 6.00 | 6.08 | modestly inhibitory
7 | Cc1[nH]c2nc(N)[nH]c(=O)c2c1CCc1ccc(C(=O)N[C@@H](CCC(=O)O)C(=O)O)s1 [Compound 7] | < 6.00 | < 6.00 | 
8 | Cc1[nH]c2nc(N)[nH]c(=O)c2c1CCc1ccc(C(=O)N[C@@H](CCC(=O)O)C(=O)O)c(F)c1 [Compound 8] | < 6.00 | < 6.00 | 
